{"source": "patent US8084254B2", "about": "“Human blood brain barrier model” (Institut National de la Sante et de la Recherche Medicale …, priority 2004, dated 2011)", "key": {"[1]": {"settings": "brain perfusion of adult rats; reported values (Cisternino et al.); cited from earlier work"}, "P-gp": {"target": "P-gp (Homo sapiens, UniProt P08183)", "sequence (P08183 whole entry)": "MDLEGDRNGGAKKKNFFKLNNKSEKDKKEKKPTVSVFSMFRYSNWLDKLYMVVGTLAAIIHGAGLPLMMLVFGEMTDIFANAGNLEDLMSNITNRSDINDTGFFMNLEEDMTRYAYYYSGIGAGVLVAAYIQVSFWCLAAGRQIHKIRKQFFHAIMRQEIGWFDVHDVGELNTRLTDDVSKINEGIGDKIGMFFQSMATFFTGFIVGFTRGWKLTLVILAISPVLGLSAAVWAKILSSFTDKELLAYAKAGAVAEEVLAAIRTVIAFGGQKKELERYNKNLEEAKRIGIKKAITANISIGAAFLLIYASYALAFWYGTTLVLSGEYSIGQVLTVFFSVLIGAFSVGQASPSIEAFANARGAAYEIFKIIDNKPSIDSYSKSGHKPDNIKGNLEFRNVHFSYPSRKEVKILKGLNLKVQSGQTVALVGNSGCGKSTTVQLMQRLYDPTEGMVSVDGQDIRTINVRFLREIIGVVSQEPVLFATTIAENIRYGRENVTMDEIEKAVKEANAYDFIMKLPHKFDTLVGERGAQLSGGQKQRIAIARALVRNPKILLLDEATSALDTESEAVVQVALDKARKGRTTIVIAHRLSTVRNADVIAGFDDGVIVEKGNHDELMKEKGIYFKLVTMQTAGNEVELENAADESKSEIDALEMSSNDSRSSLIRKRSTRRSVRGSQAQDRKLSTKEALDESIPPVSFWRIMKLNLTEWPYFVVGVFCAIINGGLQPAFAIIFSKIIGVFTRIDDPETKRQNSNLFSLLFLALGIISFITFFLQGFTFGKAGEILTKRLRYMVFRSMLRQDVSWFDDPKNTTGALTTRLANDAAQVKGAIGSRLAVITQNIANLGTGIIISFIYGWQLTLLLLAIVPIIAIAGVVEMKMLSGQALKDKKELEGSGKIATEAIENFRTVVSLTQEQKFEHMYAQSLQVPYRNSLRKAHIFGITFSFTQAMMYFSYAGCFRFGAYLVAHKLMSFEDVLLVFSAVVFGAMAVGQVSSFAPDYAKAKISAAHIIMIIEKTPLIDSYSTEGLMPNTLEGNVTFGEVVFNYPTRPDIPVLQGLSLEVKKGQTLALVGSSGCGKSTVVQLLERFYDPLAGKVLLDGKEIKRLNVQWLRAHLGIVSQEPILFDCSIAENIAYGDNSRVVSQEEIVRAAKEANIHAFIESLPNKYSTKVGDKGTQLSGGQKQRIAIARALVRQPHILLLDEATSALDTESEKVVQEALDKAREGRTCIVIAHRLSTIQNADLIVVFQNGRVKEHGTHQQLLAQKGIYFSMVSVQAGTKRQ", "assay": "Drug accumulation in hCMEC/D3 cells with P-gp inhibitor", "settings": "PSC-833 10 μM", "description": "The plates were shaken during both preincubation and incubation periods to reduce the effect of the aqueous boundary layer on drug accumulation. The cells were rapidly washed three times with ice-cold PBS to eliminate the extracellular drug, and then lyed in 100 μl 0.1 M NaOH or 1% Triton-X100."}, "hCMEC/D3 cells": {"test_system": "hCMEC/D3 cells", "protocol": "HCMEC/D3 cells were seeded on the filters at a density of 2×10^5 cells/cm^2 in normal culture medium (EGM-2). […] All plates were kept at 37° C. […] PS (clearance) is the permeability surface area product and s is the surface area of the filter (1 cm^2)."}, "hCMEC/D3 monolayers": {"test_system": "hCMEC/D3 monolayers", "assay": "Transendothelial electrical resistance (TEER) of hCMEC/D3 monolayers", "type": "cell-based, human", "settings": "treatment of hCMEC/D3 monolayers", "protocol": "Transendothelial electrical resistance (TEER) of hCMEC/D3 monolayers on Transwell-Clear™ filters was measured using an Endohm 12 chamber and an Endohmeter (World Precision Instruments Inc., Sarasota, Fla., USA). The baseline resistance of ECM-coated inserts was always subtracted from the resistance obtained in the presence of the endothelial cultures. Primary cultures of rat brain endothelial cells were used as control."}}}
{"compound": "CC[C@]1(O)C[C@H]2CN(CCc3c([nH]c4ccccc34)[C@@](C(=O)OC)(c3cc4c(cc3OC)N(C=O)[C@H]3[C@@](O)(C(=O)OC)[C@H](OC(C)=O)[C@]5(CC)C=CCN6CC[C@]43[C@@H]65)C2)C1", "note": "[Vincristine]", "values": [{"measurement": "In vivo Kin", "setting": "[1]", "value": 0.06, "unit": "µL/s/g"}]}
{"compound": "C/C=C/C[C@@H](C)C(=O)[C@H]1C(=O)N[C@@H](C(C)C)C(=O)N(C)CC(=O)N(C)[C@@H](CC(C)C)C(=O)N[C@@H](C(C)C)C(=O)N(C)[C@@H](CC(C)C)C(=O)N[C@@H](C)C(=O)N[C@H](C)C(=O)N(C)[C@@H](CC(C)C)C(=O)N(C)[C@@H](CC(C)C)C(=O)N(C)[C@@H](C(C)C)C(=O)N1C", "note": "[PSC-833]", "values": [{"measurement": "[3H] daunorubicin uptake by hCMEC/D3 cells", "setting": "P-gp", "value": "markedly increased"}, {"measurement": "calcein-AM uptake by hCMEC/D3 cells", "setting": "P-gp; calcein-AM 10 μM", "value": "markedly increased"}, {"measurement": "rhodamine 123 uptake by hCMEC/D3 cells", "setting": "P-gp; rhodamine 123 10 μM", "value": "markedly increased"}]}
{"compound": "CN1CC[C@]23c4c5ccc(O)c4O[C@H]2[C@@H](O[C@@H]2O[C@H](C(=O)O)[C@@H](O)[C@H](O)[C@H]2O)C=C[C@H]3[C@H]1C5", "note": "[M6G, morphine-6-glucuronide]", "values": [{"measurement": "In vivo Kin", "setting": "[1]", "value": 0.03, "unit": "µL/s/g"}]}
{"compound": "COc1cc2nc(N3CCN(C(=O)c4ccco4)CC3)nc(N)c2cc1OC", "note": "[Prazosin]", "values": [{"measurement": "In vivo Kin", "setting": "[1]", "value": 0.96, "unit": "µL/s/g"}]}
{"compound": "Lucifer Yellow", "values": [{"measurement": "Permeability of Lucifer Yellow across hCMEC/D3", "setting": "hCMEC/D3 cells", "value": "0.53±0.10 10^−3 cm/min"}]}
{"compound": "CN1C(=O)CN=C(c2ccccc2)c2cc(Cl)ccc21", "note": "[Diazepam]", "values": [{"measurement": "In vivo Kin", "setting": "[1]", "value": 45, "unit": "µL/s/g"}]}
{"compound": "COc1cc2c(c(OC)c1OC)-c1ccc(OC)c(=O)cc1[C@@H](NC(C)=O)CC2", "note": "[Colchicine]", "values": [{"measurement": "In vivo Kin", "setting": "[1]", "value": 0.28, "unit": "µL/s/g"}]}
{"compound": "Nc1ncnc2c1nc(Sc1ccc(Cl)cc1)n2[C@@H]1O[C@@H]2COP(=O)(O)O[C@H]2[C@H]1O", "note": "[chlorophenylthio-cAMP]", "values": [{"measurement": "Effect on TEER value", "setting": "hCMEC/D3 monolayers", "value": "failed to significantly increase"}]}
